{
  "source": "ChEMBL document CHEMBL1127921",
  "about": "“Synthesis and study of a non macrocyclic FK506 derivative” (Bioorg Med Chem Lett, 1994)",
  "target": "Peptidyl-prolyl cis-trans isomerase FKBP1A (Homo sapiens, UniProt P62942)",
  "sequence (P62942 whole entry)": "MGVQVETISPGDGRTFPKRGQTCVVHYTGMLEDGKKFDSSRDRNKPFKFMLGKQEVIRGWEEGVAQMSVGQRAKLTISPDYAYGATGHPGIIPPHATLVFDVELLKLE",
  "assay": "Binding affinity towards immunophilin cytosolic protein FK506 binding protein 12 was determined",
  "data": [
    {"smiles": "CCC[C@H](/C=C(\\C)C[C@H](C)C[C@H](OC)[C@H]1O[C@@](O)(C(=O)C(=O)N2CCCC[C@H]2C(=O)O[C@H](/C(C)=C/[C@@H]2CC[C@@H](O)[C@H](OC)C2)C(C)C)[C@H](C)C[C@@H]1OC)C(C)=O", "values": [
      {"measurement": "Ki", "value": 400, "unit": "nM"}
    ]},
    {"smiles": "C=CCC(CC=C)C(=O)C[C@H](O)[C@@H](C)[C@H](OC(=O)[C@@H]1CCCCN1C(=O)C(=O)[C@]1(O)O[C@H]([C@H](/C=C\\C)OC)CC[C@H]1C)[C@H](C)C[C@@H]1CC[C@@H](O)[C@H](OC)C1", "values": [
      {"measurement": "Ki", "value": 207, "unit": "nM"}
    ]}
  ]
}
